According to patent publication US10160748B2 (AbbVie Inc., priority 2015, dated 2018):

The compounds below were run against TNFα trimer (Homo sapiens, UniProt P01375) (assay: TNFα FP Competitive Binding Assay). Settings: FP binding assay; 20 nM TNFα trimer, 1 nM OregonGreen488 probe; read-out: TNF IC50.
Outline: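 Compounds in 12-point 1:3 series, final top 100 μM (2.0% DMSO) or 338 μM (3.4% DMSO), displace 1 nM fluorescent probe from 20 nM TNFα trimer. After 18-24 h incubation plus 1 h rt equilibration, background-subtracted polarization measured and curves fitted with variable slope.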

TNFα trimer, sequence (P01375 77-233 limits assumed): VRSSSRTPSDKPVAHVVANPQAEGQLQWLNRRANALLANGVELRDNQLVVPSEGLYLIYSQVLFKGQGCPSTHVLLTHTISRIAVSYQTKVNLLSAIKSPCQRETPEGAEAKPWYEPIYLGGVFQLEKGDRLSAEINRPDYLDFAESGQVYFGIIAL

SMILES	IC50 [nM]
Cn1c(=O)c2ccc(-c3cnc(N4CCN5C(=O)NC[C@@H]5C4)nc3)cc2n1Cc1cc(CC#N)ccc1OC(F)F [Example 68, (R)-2-(4-(Difluoromethoxy)-3-((2-methyl-3-oxo-6-(2-(3-oxohexahydromidazo[1,5-a]pyrazin-7(1H)-yl)pyrimidin-5-yl)-2,3-dihydro-1H-indazol-1-yl)methyl)phenyl)acetonitrile]	< 1000
Cc1ccc(OC(F)F)c(Cn2c3cc(-c4cnc(N5CCN(C(=O)COP(=O)(O)O)[C@H](C)C5)nc4)ccc3c(=O)n2C)c1 [Example 69, (R)-2-(4-(5-(1-(2-(Difluoromethoxy)-5-methylbenzyl)-2-methyl-3-oxo-2,3-dihydro-1H-indazol-6-yl)pyrimidin-2-yl)-2-methyldihydrogen phosphate]	< 1000
COc1c(-c2cnc(N3CCN(C(=O)CO)[C@H](C)C3)nc2)ccc2c(=O)n(C)n(Cc3ccccc3OC(F)F)c12 [Example 70, (R)-1-(2-(Difluoromethoxy)benzyl)-6-(2-(4-(2-hydroxyacetyl)-3-methylpiperazin-1-yl)pyrimidin-5-yl)-7-methoxy-2-methyl-1H-indazol-3(2H)-one]	< 1000
C[C@@H]1CN(c2ncc(-c3ccc4c(=O)n(C)n(Cc5ccccc5Cl)c4c3C#N)cn2)CCN1C(=O)CO [Example 71, (R)-1-(2-Chlorobenzyl)-6-(2-(4-(2-hydroxyacetyl)-3-methylpiperazin-1-yl)pyrimidin-5-yl)-2-methyl-3-oxo-2,3-dihydro-1H-indazole-7-carbonitrile]	1000 to 10000
Cn1cc(C(F)(F)F)c(Cn2c3cc(-c4cnc(N5CCN6C(=O)NC[C@H]6C5)nc4)ccc3c(=O)n2C)n1 [Example 72, (S)-7-(5-(2-methyl-1-((1-methyl-4-(trifluoromethyl)-1H-pyrazol-3-yl)methyl)-3-oxo-2,3-dihydro-1H-indazol-6-yl)pyrimidin-2-yl)hexahydroimidazo[1,5-a]pyrazin-3(2H)-one]	1000 to 10000
CC(=O)N1CCN(c2ncc(-c3ccc4c(=O)n(C)n(Cc5nc(C)ccc5C(F)(F)F)c4n3)cn2)C[C@H]1C [Example 73, (R)-6-(2-(4-Acetyl-3-methylpiperazin-1-yl)pyrimidin-5-yl)-2-methyl-1-((6-methyl-3-(trifluoromethyl)pyridin-2-yl)methyl)-1H-pyrazolo[3,4-b]pyridin-3(2H)-one]	< 1000
CC(=O)N1CCN(c2ncc(-c3ccc4c(=O)n(C)n(Cc5nc(C)ccc5C(F)(F)F)c4c3)cn2)[C@H](C)C1 [Example 74, (R)-6-(2-(4-Acetyl-2-methylpiperazin-1-yl)pyrimidin-5-yl)-2-methyl-1-((6-methyl-3-(trifluoromethyl)pyridin-2-yl)methyl)-1H-indazol-3(2H)-one]	< 1000
CC(=O)N1CCN(c2ncc(-c3ccc4c(=O)n(C)n(Cc5nc(C)ccc5OC(F)F)c4c3)cn2)C[C@H]1C [Example 75, (R)-6-(2-(4-Acetyl-3-methylpiperazin-1-yl)pyrimidin-5-yl)-1-((3-(difluoromethoxy)-6-methylpyridin-2-yl)methyl)-2-methyl-1H-indazol-3(2H)-one]	< 1000
Cc1ccc(OC(F)F)c(Cn2c3cc(-c4cnc(N5CCN(C(=O)CO)[C@H](C)C5)nc4)ccc3c(=O)n2C)n1 [Example 76, (R)-1-((3-(Difluoromethoxy)-6-methylpyridin-2-yl)methyl)-6-(2-(4-(2-hydroxyacetyl)-3-methylpiperazin-1-yl)pyrimidin-5-yl)-2-methyl-1H-indazol-3(2H)-one]	< 1000
COCc1cccc(OC(F)F)c1Cn1c2cc(-c3cnc(C(C)(C)O)nc3)ccc2c(=O)n1C [Example 77, 1-(2-(Difluoromethoxy)-6-(methoxymethyl)benzyl)-6-(2-(2-hydroxypropan-2-yl)pyrimidin-5-yl)-2-methyl-1H-indazol-3(2H)-one]	1000 to 10000
C[C@@H]1CN(C(=O)CO)CCN1c1ncc(-c2ccc3c(=O)n(C)n(Cc4cc(CC#N)ccc4OC(F)F)c3c2)cn1 [Example 78, (R)-2-(4-(difluoromethoxy)-3-((6-(2-(4-(2-hydroxyacetyl)-2-methylpiperazin-1-yl)pyrimidin-5-yl)-2-methyl-3-oxo-2,3-dihydro-1H-indazol-1-yl)methyl)phenyl)acetonitrile]	< 1000
Cn1c(=O)c2ccc(-c3cnc(N4CCN5C(=O)OC[C@H]5C4)nc3)cc2n1Cc1cc(CC#N)ccc1OC(F)F [Example 79, (R)-2-(4-(Difluoromethoxy)-3-((2-methyl-3-oxo-6-(2-(3-oxotetrahydro-1H-oxazolo[3,4-a]pyrazin-7(3H)-yl)pyrimidin-5-yl)-2,3-dihydro-1H-indazol-1-yl)methyl)phenyl)acetonitrile]	< 1000
Cc1ccc(OC(F)F)c(Cn2c3nc(-c4cnc(N5CCN(C(=O)CO)C[C@H]5C)nc4)ccc3c(=O)n2C)c1 [Example 80, (R)-1-(2-(Difluoromethoxy)-5-methylbenzyl)-6-(2-(4-(2-hydroxyacetyl)-2-methylpiperazin-1-yl)pyrimidin-5-yl)-2-methyl-1H-pyrazolo[3,4-b]pyridin-3(2H)-one]	< 1000
Cc1ccc(Cl)c(Cn2c3nc(-c4cnc(N5CCN(C(=O)CO)C[C@H]5C)nc4)ccc3c(=O)n2C)c1 [Example 81, (R)-1-(2-Chloro-5-methylbenzyl)-6-(2-(4-(2-hydroxyacetyl)-2-methylpiperazin-1-yl)pyrimidin-5-yl)-2-methyl-1H-pyrazolo[3,4-b]pyridin-3(2H)-one]	< 1000
CC(=O)N1CCN(c2ncc(-c3ccc4c(=O)n(C)n(Cc5ccc(C)cc5SC(F)F)c4c3)cn2)C[C@H]1C [Example 82, (R)-6-(2-(4-Acetyl-3-methylpiperazin-1-yl)pyrimidin-5-yl)-1-(2-((difluoromethyl)thio)-4-methylbenzyl)-2-methyl-H-indazol-3(2H)-one]	< 1000
CN1CCCC(Nc2ccc(Cl)c(Cn3c4cc(-c5cnc(C(C)(C)O)nc5)ccc4c(=O)n3C)c2)C1=O (stereo not drawn) [Example 83, 1-(2-Chloro-5-((1-methyl-2-oxopiperidin-3-yl)amino)benzyl)-6-(2-(2-hydroxypropan-2-yl)pyrimidin-5-yl)-2-methyl-1H-indazol-3(2H)-one]	1000 to 10000

Continued, values first:

IC50 [nM]	SMILES
< 1000	Cn1c(=O)c2ccc(-c3cnc(N4CCN5C(=O)NC[C@@H]5C4)nc3)cc2n1Cc1nc(CO)ccc1OC(F)F [Example 84]
< 1000	Cc1ccc(OC(F)F)c(Cn2c3cc(-c4cnc(C5(C)CCNC5)nc4)ccc3c(=O)n2C)c1 (stereo not drawn) [Example 87, 1-(2-(Difluoromethoxy)-5-methylbenzyl)-2-methyl-6-(2-(3-methylpyrrolidin-3-yl)pyrimidin-5-yl)-1H-indazol-3(2H)-one]
1000 to 10000	Cc1ccc(OC(F)F)c(Cn2c3cc(-c4cnc(C5(C)CCN(C)C5)nc4)ccc3c(=O)n2C)c1 (stereo not drawn) [Example 88, 1-(2-(Difluoromethoxy)-5-methylbenzyl)-6-(2-(1,3-dimethylpyrrolidin-3-yl)pyrimidin-5-yl)-2-methyl-1H-indazol-3(2H)-one]
< 1000	Cc1ccc(OC(F)F)c(Cn2c3cc(-c4ccc(C(C)(C)N)nc4)c(F)cc3c(=O)n2C)c1 [Example 89, 6-(6-(2-Aminopropan-2-yl)pyridin-3-yl)-1-(2-(difluoromethoxy)-5-methylbenzyl)-5-fluoro-2-methyl-1H-indazol-3(2H)-one 2,2,2-trifluoroacetate]
1000 to 10000	COCc1ccc(OC(F)F)c(Cn2c3cc(-c4cnc(N5CCN(C(C)=O)CC5)nc4)ccc3c(=O)n2C)c1 [Example 90, 6-(2-(4-Acetylpiperazin-1-yl)pyrimidin-5-yl)-1-(2-(difluoromethoxy)-5-(methoxymethyl)benzyl)-2-methyl-1H-indazol-3(2H)-one]
1000 to 10000	Cn1c(=O)c2ccc(-c3cnc(C4(O)CN(C(=O)CO)C4)nc3)cc2n1Cc1ccccc1OC(F)F [Example 91, 1-(2-(Difluoromethoxy)benzyl)-6-(2-(3-hydroxy-1-(2-hydroxyacetyl)azetidin-3-yl)pyrimidin-5-yl)-2-methyl-1H-indazol-3(2H)-one]
1000 to 10000	Cn1c(=O)c2ccc(-c3cnc(C(C)(C)O)nc3)cc2n1Cc1cc(Cn2cn[nH]c2=O)ccc1OC(F)F [Example 92, 1-(2-(Difluoromethoxy)-((5-oxo-1H-1,2,4-triazol-4(5H)-yl)methy)benzyl)-6-(2-(2-hydroxypropan-2-yl)pyrimidin-5-yl)-2-methyl-1H-indazol-3(2H)-one]
< 1000	Cn1c(=O)c2ccc(-c3cnc(N4CCN5C(=O)NC[C@H]5C4)nc3)cc2n1Cc1cc(Cn2cnnc2)ccc1OC(F)F [Example 93, (S)-7-(5-(1-(5-((4H-1,2,4-triazol-4-yl)methyl)-2-(difluoromethoxy)benzyl)-2-methyl-3-oxo-2,3-dihydro-1H-indazol-6-yl)pyrimidin-2-yl)hexahydroimidazo[1,5-a]pyrazin-3(2H)-one]
1000 to 10000	CCN(Cc1ccc(OC(F)F)c(Cn2c3cc(-c4cnc(N5CCN(C(C)=O)[C@H](C)C5)nc4)ccc3c(=O)n2C)c1)C(C)=O [Example 94, (R)—N-(3-((6-(2-(4-Acetyl-3-methylpiperazin-1-yl)pyrimidin-5-yl)-2-methyl-3-oxo-2,3-dihydro-1H-indazol-1-yl)methyl)-4-(difluoromethoxy)benzyl)-N-ethylacetamide]
1000 to 10000	Cc1ccc(OC(F)F)c(Cn2c3nc(-c4cnc(C(C)(C)O)nc4C)ccc3c(=O)n2C)c1 [Example 95, 1-(2-(Difluoromethoxy)-5-methylbenzyl)-6-(2-(2-hydroxypropan-2-yl)-4-methylpyrimidin-5-yl)-2-methyl-1,2-dihydro-3H-pyrazolo[3,4-b]pyridin-3-one]
< 1000	Cc1ccc(OC(F)F)c(Cn2c3nc(-c4cnc(C(C)(C)O)nc4C)c(F)cc3c(=O)n2C)c1 [Example 98, 1-(2-(Difluoromethoxy)-5-methylbenzyl)-5-fluoro-6-(2-(2-hydroxypropan-2-yl)-4-methylpyrimidin-5-yl)-2-methyl-1,2-dihydro-3H-pyrazolo[3,4-b]pyridin-3-one]
